Measured values as given in patent US5462965A, “Use of heterocyclic amino-alcohol compounds for treatment of CNS diseases” (GD Searle & Co., priority 1992, dated 1995).
Where two headings read alike, the source gives them in different places.

What was measured:
NMDA receptor = conditions: C. Carter et al, 1988; cited from earlier work
[1] = biological target: NMDA receptor-ionophore complex (polyamine domain / NMDA ionophore); assay: Spermidine (polyamine)-stimulated [3H]TCP binding, functional model of coupling of the polyamine domain to the NMDA ionophore; conditions: spermidine-stimulated [3H]TCP binding, rat cortex; for IC50: at least two independent experiments
Experimental: Polyamine-stimulated [^3 H]TCP: Crude synaptic ("buffy coat") membranes were prepared from freshly dissected cerebral cortices. Membrane preparations were extensively washed employing 3 freeze-thaw cycles. The final pellet was stored at -70° C. for 1-7 days prior to assay. On the day of assay, the membrane pellet was washed twice by resuspension and centrifugation (45,000 g, 10 min. ). […] Assays were terminated by rapid vacuum filtration through GF/B filter paper (pre-soaked in 0.5% aqueous polyethyleneimine) in a Brandel M-48R Cell Harvester and thorough washing with ice-cold 5 mM Tris HCl pH 7.7.

[2] = biological target: polyamine domain of the NMDA receptor-complex; assay: Binding of [125I]ifenprodil to rat cortical membranes (polyamine domain interaction)
Experimental: The NMDA receptor-ionophore complex consists of a number of interacting domains, including one for polyamines where ifenprodil binds to exert its noncompetitive antagonism. Ifenprodil was iodinated with Na^125 I/chloramine-T, purified and its binding characterized.
(§1) Membranes were prepared from freshly dissected brains of adult male Sprague-Dawley rats (175-250 g).
^125 I]Ifenprodil: Crude membranes were prepared from freshly dissected cerebral cortices as described elsewhere [P. M. Beart et al, Neurosci. Lett., 124, 187-189 (1991)]. Briefly, assays were performed in 5 mM Tris HCl pH 7.7 containing [^125 I]ifenprodil (20,000 dpms, ~20 pM) and cortical membranes (0.5 mg wet wt.) in a final volume of 0 5 mL Incubations were for 30 min at 20° C., in triplicate, employing 12 concentrations of competing drugs. Non-specific binding was defined with 10 mM spermine. Assays were terminated by rapid filtration through GF/B filter paper and washing [Beart et al, Id., (1991)].
Binding data were analyzed by the iterative curve fitting programs EBDA and LIGAND as fully described elsewhere [Beart et al, Id., (1989)].

sigma site [3] = assay: Sigma site binding: inhibition of R(+)-[3H]3-PPP binding; parameters: species or system rat; conditions: for affinity for the high affinity sigma site / inhibition of binding of R(+)-[3H]3-PPP / model describing the interaction with the site labelled by R(+)-[3H]3-PPP: in words; for affinity for the high affinity sigma site: computer-assisted analyses
Experimental: as §1
R(+-^3 H]3-PPP: Crude membranes were prepared from whole brain (minus cerebellum) as described previously [P. M. Beart et al, J. Neurochem., 53, 779-788 (1989)]. A filtration binding assay was employed under similar conditions to those of Largent et al (1986) with 3 nM R (+)-[^3 H]-3-PPP and a 90 min. incubation at 25° C. (Beart et al, 1989). Non-specific binding was defined with 10 μ1,3-di(2-tolyl)guanidine (DTG).
Binding data were analyzed by the iterative curve fitting programs EBDA and LIGAND as fully described elsewhere [Beart et al, Id., (1989)]. Results obtained from experiments examining spermidine-stimulated binding of ^3 H]TCP were analyzed by the program FLEXIFIT [V. Guardabasso et al, FASEB J., 2, 209-215 (1988)] which iteratively fits data to a sigmoidal model providing estimates of IC50 and slope for the drug under study.

[4] = Arch. Int. Pharm., 1983; cited from earlier work
[5] = in certain cases and mostly high doses; cited from earlier work
sigma site [6] = conditions: P. C. Contreras et al, 1990; cited from earlier work
sigma site [7] = conditions: J. Benavides et al, 1990; cited from earlier work
NMDA receptor complex = conditions: [3H]TCP and [3H]dizocilpine (MK-801); cited from earlier work
[8] = rat cortical membranes, mean ± s.e.m., n = 3 or 4, read-out: [125I] IFENPRODIL Kd
[9] = one site fit, pooled data, n = 2 independent experiments, read-out: KG = Dissociation constant for one site fit
[10] = two site fit, fitted better to 2 site model (P < 0.05)
[11] = two site fit, fitted better to 2 site model (P < 0.05), read-out: KH = Dissociation constant at high affinity site for two site fit
[12] = two site fit, fitted better to 2 site model (P < 0.05), read-out: KL = Dissociation constant at low affinity site for two site fit
[13] = two site fit, value in parentheses (exception to better 2 site fit)
[14] = two site fit, value in parentheses (exception to better 2 site fit), read-out: KH = Dissociation constant at high affinity site for two site fit
[15] = two site fit, value in parentheses (exception to better 2 site fit), read-out: KL = Dissociation constant at low affinity site for two site fit
[16] = one site fit, *one experiment, read-out: KG = Dissociation constant for one site fit
[17] = n=4 (spermine), n=3 (spermidine), read-out: dissociation constants for spermine and spermidine (inhibition of specific [125I]ifenprodil binding)

Compound: 1-(4chlorophenyl)-2-[1-(4-fluorophenyl)piperidinyl]ethanol
- NMDA receptor antagonism (NMDA receptor): noncompetitive NMDA receptor antagonists

Compound: C[C@H](NCCCCc1ccccc1)[C@H](O)c1ccc2c(c1)CCS2 (relative stereo) [Compound 7]
- IC50 [1]: 8200 nM
- Kd [2, 8]: 3600 ± 300 nM
- affinity for the high affinity sigma site (sigma site [3]): appreciable affinity
- Kd (sigma site [3]; [9]): 170 nM
- % RH = Percent of high affinity binding sites for two site fit (sigma site [3]; [10]): 66%
- Kd (sigma site [3]; [11]): 44 nM
- Kd (sigma site [3]; [12]): 11000 nM
- antihypertensive effect [4]: antihypertensive effect
- anxiolytic activity [4]: anxiolytic activity

Compound: C[C@H](NCCCCc1ccccc1)[C@@H](O)c1ccc2c(c1)CCS2 (relative stereo) [Compound 183]
- SPERMIDINE [3H] TCP IC50 (class symbol: inhibitory at 50 μM) [1]: +
- Kd [2, 8]: 9300 ± 5400 nM
- Kd (sigma site [3]; [9]): 450 nM
- % RH = Percent of high affinity binding sites for two site fit (sigma site [3]; [13]): 84%
- Kd (sigma site [3]; [14]): 300 nM
- Kd (sigma site [3]; [15]): 130000 nM

Compound: CC(NCCCCc1ccccc1)C(O)c1ccc2c(c1)CCS2 (single isomer, unassigned) [Compound 184]
- SPERMIDINE [3H] TCP IC50 (class symbol: inhibitory at 50 μM) [1]: +
- Kd [2, 8]: 6300 ± 1800 nM
- affinity for the high affinity sigma site (sigma site [3]): appreciable affinity
- Kd (sigma site [3]; [9]): 230 nM
- % RH = Percent of high affinity binding sites for two site fit (sigma site [3]; [10]): 54%

Compound: CC(NCCCCc1ccccc1)C(O)c1ccc2c(c1)CCS2 (single isomer, unassigned) [Compound 185]
- IC50 [1]: 59000 nM
- Kd [2, 8]: 3500 ± 1100 nM
- inhibition of binding of R(+)-[3H]3-PPP (sigma site [3]): very potent inhibitors
- affinity for the high affinity sigma site (sigma site [3]): appreciable affinity
- Kd (sigma site [3]; [9]): 32 nM
- % RH = Percent of high affinity binding sites for two site fit (sigma site [3]; [13]): 63%
- Kd (sigma site [3]; [14]): 4.6 nM
- Kd (sigma site [3]; [15]): 300 nM

Compound: C=CCN1CCC2(C)c3cc(O)ccc3CC1C2C (single isomer, unassigned; (+)) [(+)SKF10.047, N-allylnormetazocine, reference compound]
- Kd (sigma site [3]; [9]): 1500 nM
- % RH = Percent of high affinity binding sites for two site fit (sigma site [3]; [10]): 60%
- Kd (sigma site [3]; [11]): 48 nM
- Kd (sigma site [3]; [12]): 6300 nM

Compound: CCCCN(C)CC(O)c1ccc2c(c1)CCC2 (centres unmarked) [1-(5-indanyl)-2-amino-N,N-n-butyl-methylethanol]
- CNS-activity [5]: in certain cases and mostly high doses posess a CNS-activity

Compound: OC(CNC1CCCCCC1)c1ccc2c(c1)CCC2 (centres unmarked) [1-(5-indanyl)-2-amino-N-cycloheptyl-ethanol]
- CNS-activity [5]: in certain cases and mostly high doses posess a CNS-activity

Compound: OC(CN1CCN(Cc2ccccc2)CC1)c1ccc2c(c1)CCC2 (centres unmarked) [1-(5-indanyl)-2-amino-N-phenylmethylpiperazinoethanol]
- CNS-activity [5]: in certain cases and mostly high doses posess a CNS-activity

Compound: CC(NCCCCc1ccccc1)C(O)c1ccc2c(c1)CCCS2 (centres unmarked) [Compound 2]
- SPERMIDINE [3H] TCP IC50 (class symbol: inhibitory at 50 μM) [1]: +
- Kd [2, 8]: 9300 ± 5500 nM
- Kd (sigma site [3]; [16]): 400 nM
- % RH = Percent of high affinity binding sites for two site fit (sigma site [3]; [13]): 72%
- Kd (sigma site [3]; [14]): 150 nM
- Kd (sigma site [3]; [15]): 4300 nM

Compound: CC(NCCCCOc1ccccc1)C(O)c1ccc2c(c1)CCCS2 (centres unmarked) [Compound 24]
- SPERMIDINE [3H] TCP IC50 (class symbol: inhibitory at 50 μM) [1]: +
- Kd [2, 8]: 3700 ± 1100 nM
- Kd (sigma site [3]; [16]): 390 nM
- % RH = Percent of high affinity binding sites for two site fit (sigma site [3]; [13]): 63%
- Kd (sigma site [3]; [14]): 89 nM
- Kd (sigma site [3]; [15]): 3000 nM

Compound: CC(C(O)c1ccc2c(c1)CCCS2)N1CCC(Cc2ccccc2)CC1 (centres unmarked) [Compound 26]
- Kd [2, 8]: 12000 nM

Compound: CC(CCCc1ccccc1)NC(C)C(O)c1ccc2c(c1)CCCS2 (centres unmarked) [Compound 42]
- SPERMIDINE [3H] TCP IC50 (class symbol: inhibitory at 50 μM) [1]: +
- Kd [2, 8]: 2700 ± 400 nM

Compound: CC(NCCCc1ccccc1)C(O)c1ccc2c(c1)CCCS2 (centres unmarked) [Compound 75]
- SPERMIDINE [3H] TCP IC50 (class symbol: inhibitory at 50 μM) [1]: +
- Kd [2, 8]: 5000 ± 1400 nM
- Kd (sigma site [3]; [9]): 340 nM
- % RH = Percent of high affinity binding sites for two site fit (sigma site [3]; [10]): 67%
- Kd (sigma site [3]; [11]): 86 nM
- Kd (sigma site [3]; [12]): 4300 nM

Compound: CC(C(O)c1ccc2c(c1)CCS2)N1CCC(Cc2ccccc2)CC1 (centres unmarked) [Compound 186]
- SPERMIDINE [3H] TCP IC50 (class symbol: inhibitory at 50 μM) [1]: +
- Kd [2, 8]: 6700 ± 1100 nM
- inhibition of binding of R(+)-[3H]3-PPP (sigma site [3]): very potent inhibitors
- Kd (sigma site [3]; [9]): 30 nM
- % RH = Percent of high affinity binding sites for two site fit (sigma site [3]; [13]): 72%
- Kd (sigma site [3]; [14]): 2.9 nM
- Kd (sigma site [3]; [15]): 600 nM

Compound: CC(C(O)c1ccc(O)cc1)N1CCC(Cc2ccccc2)CC1 (centres unmarked) [Ifenprodil, reference compound]
- IC50 [1]: 6800 nM
- Kd [2, 8]: 150 ± 30 nM
- model describing the interaction with the site labelled by R(+)-[3H]3-PPP (sigma site [3]): better described by a two-site model
- Kd (sigma site [3]; [9]): 20 nM
- % RH = Percent of high affinity binding sites for two site fit (sigma site [3]; [10]): 82%
- Kd (sigma site [3]; [11]): 11 nM
- Kd (sigma site [3]; [12]): 19000 nM
- NMDA receptor antagonism (NMDA receptor): noncompetitive NMDA receptor antagonists
- affinity for the sigma site in vitro (sigma site [6]): considerable affinity
- sigma binding affinity in vivo (sigma site [7]): Sigma binding affinity has also been found in vivo

Compound: CC(CCc1ccccc1)NC(C)C(O)c1ccc(O)cc1 (centres unmarked) [Nylidrin, reference compound]
- IC50 [1]: 73000 nM
- Kd [2, 8]: 30000 ± 8500 nM
- model describing the interaction with the site labelled by R(+)-[3H]3-PPP (sigma site [3]): better described by a two-site model
- Kd (sigma site [3]; [9]): 38 nM
- % RH = Percent of high affinity binding sites for two site fit (sigma site [3]; [10]): 86%
- Kd (sigma site [3]; [11]): 19 nM
- Kd (sigma site [3]; [12]): 11000 nM

Compound: OC(CN1CCC(Cc2ccc(F)cc2)CC1)c1ccc(Cl)cc1 (centres unmarked) [SL82.0715, reference compound]
- dissociability of [125I]ifenprodil specific binding ([2]; 16.7 μM SL 82.0715): poorly dissociable
- Kd ([2]; n=3, read-out: dissociation constant of SL82.0715 ([125I]ifenprodil binding)): 2300 ± 130 nM
- Kd [2, 8]: 2300 ± 100 nM

Compound: NCCCCNCCCN [spermidine, reference compound]
- Kd [2, 17]: 44000 nM
- effect on binding of channel ligands (NMDA receptor complex): profoundly enhance the binding of channel ligands

Compound: NCCCNCCCCNCCCN [spermine, reference compound]
- dissociability of [125I]ifenprodil specific binding ([2]; 1 mM spermine): dissociable
- Kd [2, 17]: 24000 nM
- effect on binding of channel ligands (NMDA receptor complex): profoundly enhance the binding of channel ligands
